This note sets out measurements from patent US8575203B2, “Chemical compounds” (Boehringer Ingelheim International GmbH, priority 2010, dated 2013).

Molecules are shown by their SMILES.

Sequence of Recombinant human PDK1 enzyme (aa 52-556) (O15530 52-556): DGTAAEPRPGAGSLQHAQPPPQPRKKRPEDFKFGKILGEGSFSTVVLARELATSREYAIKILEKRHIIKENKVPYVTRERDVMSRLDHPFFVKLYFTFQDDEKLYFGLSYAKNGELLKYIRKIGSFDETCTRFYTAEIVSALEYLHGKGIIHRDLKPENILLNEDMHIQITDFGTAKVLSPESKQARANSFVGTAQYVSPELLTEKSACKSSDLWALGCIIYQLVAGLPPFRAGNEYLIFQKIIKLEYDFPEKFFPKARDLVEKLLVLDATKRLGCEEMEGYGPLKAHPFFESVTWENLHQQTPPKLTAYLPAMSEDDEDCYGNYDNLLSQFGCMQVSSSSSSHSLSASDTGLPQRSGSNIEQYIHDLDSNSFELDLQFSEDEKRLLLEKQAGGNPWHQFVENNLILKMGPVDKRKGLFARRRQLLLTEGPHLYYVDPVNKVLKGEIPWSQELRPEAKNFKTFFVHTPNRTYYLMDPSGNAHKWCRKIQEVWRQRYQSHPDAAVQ

For the assay, the target named is Recombinant human PDK1 enzyme (aa 52-556) (Homo sapiens (Human), UniProt O15530). The experiment in a line: PDK1 kinase assay. The format is biochemical. The conditions noted are these: in vitro kinase assay, His6-PDK1 (aa 52-556), PDKtide, P33-ATP. The method, then:
The activity of the compounds according to the invention on the kinase PDK1 which inhibits the signal transduction pathway is determined in an in vitro kinase assay with recombinantly prepared protein:
Recombinant human PDK1 enzyme (aa 52-556) linked at its N-terminal end to His6 is isolated from baculovirus-infected insect cells. Purified enzyme may be obtained for example from the University of Dundee, Scotland. The following components are combined in a well of a 96-well round-based dish (Greiner bio-one, No. 650101): • 15 μL of compound to be tested in varying concentrations (e.g. starting at 10 μM, and diluted in steps of 1:5) in APT buffer (50 mM Tris/Cl pH 7.5; 0.05% β-mercaptoethanol; 10 mM Mg-acetate; 0.0166% Tween 20; 3.33% DMSO) • 15 μL His6-PDK1 (aa 52-556) 3.33 ng/well) and PDKtide ([…]), synthesised by Pepceuticals Limited, Nottingham, United Kingdom; 25 μM final concentration); His6-PDK1 and PDKtide are together diluted accordingly in assay buffer (50 mM tris pH 7.5, 0.05% β-mercaptoethanol, 10 mM Mg-acetate); PDKtide is present in this mixture as an 83.3 μM solution. These 30 μl are routinely incubated for 30 min at RT. • 20 μL ATP solution (25 μM ATP with 1.0 μCi/well gamma-P33-ATP). The final concentration of Tween 20 is 0.005%.
The reaction is started by adding the ATP solution and the mixture is incubated for 90 min at RT. At the start of the reaction the dishes are shaken gently. The reaction is stopped by the addition of 50 μL/well of 500 mM phosphoric acid (H3PO4) and incubated for about 20 min at RT. The precipitate is transferred by harvesting onto filter plates (96-well microtitre filter plate: UniFilter GF/C; Perkin Elmer; No. 6005174), then washed 6 times with 50 mM H3PO4 and dried at 60° C. Then the plate is stuck down with sealing tape, 25 μL/well of scintillation solution (Microscint 0; Perkin Elmer; No. 6013611) are added and the amount of P33 precipitated is measured using the Wallac Betacounter. The measured data are evaluated using Graphpad Prism software.
Take `CN1CCCC(NC(=O)c2cnc3ccc(C#CCNC(=O)c4cncn(Cc5ccc(F)c(F)c5)c4=O)cc3c2)C1` (stereo not shown) [II-80]: the concentration for half-maximal inhibition (IC50) came to 64 nM.

Consider `N#Cc1cnc2ccc(C#CCNC(=O)c3cccn(Cc4ccc(F)c(F)c4)c3=O)cc2c1NCc1ccccc1` [II-102], for which the IC50 is 871 nM.

Take `O=C(NCC#Cc1ccc2ncnc(NCC(O)CO)c2c1)c1cccn(Cc2ccc(F)c(F)c2)c1=O` (stereo not shown) [II-37]: the half-inhibitory concentration (IC50) was determined as 44 nM.

Take `COCCN1CCC(Nc2cnc3ccc(C#CCNC(=O)c4cccn(Cc5ccc(F)c(F)c5)c4=O)cc3n2)CC1` [I-49]: the IC50 was found to be 9 nM.

As to `CCN1CCC(Nc2cnc3ccc(C#CCNC(=O)c4cncn(Cc5ccc(F)c(F)c5)c4=O)cc3n2)CC1` [I-22], the IC50 was found to be 6 nM.

As for `CN(C)CCCN(C)C(=O)c1cnc2ccc(C#CCNC(=O)c3cncn(Cc4ccc(F)c(F)c4)c3=O)cc2c1` [II-79], the IC50 was 201 nM.

Regarding `O=C(NCC#Cc1ccc2nccc(OC[C@@H]3CCCNC3)c2c1)c1cccn(Cc2ccc(F)c(F)c2)c1=O` [I-125.23], the half-maximal inhibitory concentration (IC50) came to 4 nM.

`N#Cc1cnc2ccc(C#CCNC(=O)c3cccn(Cc4ccc(F)c(F)c4)c3=O)cc2c1NCCc1ccccc1` [II-96]: the concentration for half-maximal inhibition (IC50) turned out to be 607 nM.

For `CNc1cnc2ccc(C#CCNC(=O)c3cncn(Cc4ccc(F)c(F)c4)c3=O)cc2n1` [I-14], the half-inhibitory concentration (IC50) amounted to 27 nM.

Regarding `COc1ccnc2ccc(C#CCNC(=O)c3cccn(Cc4ccc(F)c(F)c4)c3=O)cc12` [I-92], the half-inhibitory concentration (IC50) was 128 nM.

`CN1CCC(Cc2cnc3ccc(C#CCNC(=O)c4cncn(Cc5ccc(F)c(F)c5)c4=O)cc3n2)CC1` [I-67]: the IC50 turned out to be 940 nM.

As to `CN(C)C1CCN(c2ncnc3ccc(C#CCNC(=O)c4cccn(Cc5ccc(F)c(F)c5)c4=O)cc23)CC1` [II-40], the IC50 was 74 nM.

Turning to `CCN(CC)c1ncnc2ccc(C#CCNC(=O)c3c(C)n(CCO)n(Cc4ccc(F)c(F)c4)c3=O)cc12` [II-49], the IC50 worked out at 50 nM.

On to `CN(C)CCSc1cnc2ccc(C#CCNC(=O)c3cncn(Cc4ccc(F)c(F)c4)c3=O)cc2n1` [I-18], for which the half-maximal inhibitory concentration (IC50) amounted to 17 nM.

On to `CCOc1ccnc2ccc(C#CCNC(=O)c3cccn(C(CO)c4ccc(F)c(F)c4)c3=O)cc12` (stereo not shown) [I-125.15], for which the IC50 is 11 nM.

With `Cc1n[nH]cc1-c1ccnc2ccc(C#CCNC(=O)c3cncn(Cc4ccc(F)c(F)c4)c3=O)cc12` [II-93], the IC50 was 24 nM.

As for `CC(c1cc(F)c(F)c(F)c1)n1cccc(C(=O)NCC#Cc2ccc3nccc(OC[C@@H]4CCCN(C)C4)c3c2)c1=O` (stereo partly shown) [I-125.18], the IC50 was 2 nM.

For the molecule `CN(C)CCOc1ccnc2ccc(C#CCNC(=O)c3cccn(Cc4ccc(F)c(F)c4)c3=O)cc12` [I-98], the concentration for half-maximal inhibition (IC50) came out at 25 nM.

On to `O=C(NCC#Cc1ccc2nccc(-c3cc[nH]c3)c2c1)c1cncn(Cc2ccc(F)c(F)c2)c1=O` [II-88], for which the IC50 is 19 nM.

Take `NC1CCC(Nc2cnc3ccc(C#CCNC(=O)c4cncn(Cc5ccc(F)c(F)c5)c4=O)cc3n2)C1` (stereo not shown) [I-44]: the IC50 amounted to 11 nM.

Take `COCCN1CCC(Nc2cnc3ccc(C#CCNC(=O)c4cccn(Cc5ccc(F)c(F)c5)c4=O)cc3c2)CC1` [I-74]: the IC50 is 8 nM.

Take `CCN1CC[C@H](Nc2cnc3ccc(C#CCNC(=O)c4cncn(Cc5ccc(F)c(F)c5)c4=O)cc3n2)[C@H](F)C1` [I-47]: the half-maximal inhibitory concentration (IC50) stood at 4 nM.

Turning to `O=C(NCC#Cc1ccc2ncnc(NCCCn3ccnc3)c2c1)c1cncn(Cc2ccc(F)c(F)c2)c1=O` [II-11], the IC50 stood at 135 nM.

As for `O=C(NCC#Cc1ccc2nccc(C3=CCCNC3)c2c1)c1cncn(Cc2ccc(F)c(F)c2)c1=O` [II-91], the 50% inhibitory concentration (IC50) is 14 nM.

In the case of `COCCN1CCC(Nc2cnc3ccc(C#CCNC(=O)c4cccn([C@@H](CO)c5ccc(F)c(F)c5)c4=O)cc3c2)CC1` [I-77], the half-inhibitory concentration (IC50) was found to be 4 nM.

`CN1CC[C@H](COc2ccnc3ccc(C#CCNC(=O)c4cccn(Cc5cc(F)c(F)c(F)c5)c4=O)cc23)C1` [I-125.9]: the 50% inhibitory concentration (IC50) came out at 2 nM.

Regarding `O=C(NCC#Cc1ccc2ncc(N[C@H]3CC[C@H](O)CC3)nc2c1)c1cncn(Cc2ccc(F)c(F)c2)c1=O` [I-39], the concentration for half-maximal inhibition (IC50) amounted to 21 nM.

As for `CCN1CCC(Nc2cnc3ccc(C#CCNC(=O)c4cncn(Cc5ccc(F)c(F)c5)c4=O)cc3c2)CC1` [I-71], the IC50 worked out at 4 nM.

Take `O=C(NCC#Cc1ccc2ncc(NC3CCN(CCO)CC3)nc2c1)c1cncn(Cc2ccc(F)c(F)c2)c1=O` [I-9]: the IC50 was 3 nM.

As for `CC(=O)N[C@@H]1CCN(c2ncnc3ccc(C#CCNC(=O)c4cccn(Cc5ccc(F)c(F)c5)c4=O)cc23)C1` [II-30], the IC50 stood at 21 nM.

In the case of `CN(C)CCCNc1ccnc2ccc(C#CCNC(=O)c3cncn(Cc4ccc(F)c(F)c4)c3=O)cc12` [I-119], the IC50 was determined as 554 nM.

`CN1CCCN(c2ncnc3ccc(C#CCNC(=O)c4cccn(Cc5ccc(F)c(F)c5)c4=O)cc23)CC1` [II-29]: the IC50 stood at 156 nM.

As to `CCN1CCC(Nc2cnc3ccc(C#CCNC(=O)c4cccn(Cc5ccc(F)c(F)c5)c4=O)cc3c2)CC1` [I-72], the half-maximal inhibitory concentration (IC50) is 2 nM.

On to `O=C(NCC#Cc1ccc2ncnc(NCCc3ccccn3)c2c1)c1cncn(Cc2ccc(F)c(F)c2)c1=O` [II-7], for which the half-maximal inhibitory concentration (IC50) was 105 nM.

Take `CN(C)CCNc1cnc2ccc(C#CCNC(=O)c3cncn(Cc4ccc(F)c(F)c4)c3=O)cc2n1` [I-12]: the IC50 came to 35 nM.

Take `CCN1CCC(CN(C)c2ncnc3ccc(C#CCNC(=O)c4cccn(Cc5ccc(F)c(F)c5)c4=O)cc23)C1` (stereo not shown) [II-47]: the IC50 was 117 nM.

`CC(CNc1ncnc2ccc(C#CCNC(=O)c3cncn(Cc4ccc(F)c(F)c4)c3=O)cc12)c1ccccc1` (stereo not shown) [II-15]: the IC50 is 445 nM.

On to `CN1CCN(Nc2cnc3ccc(C#CCNC(=O)c4cncn(Cc5ccc(F)c(F)c5)c4=O)cc3n2)CC1` [I-36], for which the 50% inhibitory concentration (IC50) amounted to 87 nM.

Take `CN(C)c1ncnc2ccc(C#CCNC(=O)c3cncn(Cc4ccc(F)c(F)c4)c3=O)cc12` [II-4]: the IC50 is 26 nM.

`CN(C)CCCOc1ccnc2ccc(C#CCNC(=O)c3cccn(Cc4ccc(F)c(F)c4)c3=O)cc12` [I-93]: the IC50 was 12 nM.

Consider `O=C(NCC#Cc1ccc2nccc(OCC3CCCCO3)c2c1)c1cccn(Cc2ccc(F)c(F)c2)c1=O` (stereo not shown) [I-109], for which the half-maximal inhibitory concentration (IC50) worked out at 166 nM.

For `Cc1ccnc2ccc(C#CCNC(=O)c3cncn(Cc4ccc(F)c(F)c4)c3=O)cc12` [II-92], the IC50 turned out to be 56 nM.

As for `CC1CN(C)CCC1Nc1ncnc2ccc(C#CCNC(=O)c3cncn(Cc4ccc(F)c(F)c4)c3=O)cc12` (stereo not shown) [II-25], the IC50 stood at 126 nM.

Consider `COCCN1CCN(C(=O)c2cnc3ccc(C#CCNC(=O)c4cncn(Cc5ccc(F)c(F)c5)c4=O)cc3c2)CC1` [II-85], for which the IC50 is 1000 nM.

Take `CN(CCCO)c1ncnc2ccc(C#CCNC(=O)c3cccn(Cc4ccc(F)c(F)c4)c3=O)cc12` [II-34]: the IC50 worked out at 59 nM.

With `CN(C)CCCNc1ccnc2ccc(C#CCNC(=O)c3cccn(Cc4ccc(F)c(F)c4)c3=O)cc12` [I-120], the IC50 turned out to be 656 nM.

Regarding `CONc1ncnc2ccc(C#CCNC(=O)c3cncn(Cc4ccc(F)c(F)c4)c3=O)cc12` [II-61], the IC50 stood at 57 nM.

For `CN(C)CCCNC(=O)c1cnc2ccc(C#CCNC(=O)c3cncn(Cc4ccc(F)c(F)c4)c3=O)cc2c1` [II-68], the IC50 came out at 20 nM.

As for `C[C@@H](c1cc(F)c(F)c(F)c1)n1cccc(C(=O)NCC#Cc2ccc3nccc(OC[C@@H]4CCCN(CCN5CCOCC5)C4)c3c2)c1=O` [I-125.20], the IC50 is 17 nM.

`CCN1CCC(Nc2cnc3ccc(C#CCNC(=O)c4cccn(Cc5ccc(F)c(F)c5)c4=O)cc3n2)CC1` [I-46]: the half-inhibitory concentration (IC50) was 7 nM.

On to `CN1CCC(CNc2ncnc3ccc(C#CCNC(=O)c4cccn(Cc5ccc(F)c(F)c5)c4=O)cc23)C1` (stereo not shown) [II-38], for which the IC50 worked out at 97 nM.

Take `O=C(NCC#Cc1ccc2ncc(N[C@H]3CC[C@H](N4CCOCC4)CC3)nc2c1)c1cncn(Cc2ccc(F)c(F)c2)c1=O` [I-40]: the half-maximal inhibitory concentration (IC50) was 2 nM.

Take `Cc1ncnc2ccc(C#CCNC(=O)c3cncn(Cc4ccc(F)c(F)c4)c3=O)cc12` [II-66]: the IC50 was determined as 98 nM.

In the case of `COC(C)CCOc1ccnc2ccc(C#CCNC(=O)c3cccn(Cc4ccc(F)c(F)c4)c3=O)cc12` (stereo not shown) [I-110], the half-maximal inhibitory concentration (IC50) was 137 nM.

Consider `CCN1CC[C@@H](Nc2cnc3ccc(C#CCNC(=O)c4cncn(Cc5ccc(F)c(F)c5)c4=O)cc3n2)[C@@H](F)C1` [I-45], for which the half-maximal inhibitory concentration (IC50) came to 8 nM.

Regarding `COCCN1CCC(Nc2cnc3ccc(C#CCNC(=O)c4cccn([C@@H](CO)c5ccc(F)c(F)c5)c4=O)cc3n2)CC1` [I-48], the IC50 came to 3 nM.

On to `CN(CCc1ccccc1)c1c(C#N)cnc2ccc(C#CCNC(=O)c3cccn(Cc4ccc(F)c(F)c4)c3=O)cc12` [II-106], for which the IC50 amounted to 414 nM.

With `CN(Cc1cccc2ncccc12)c1ncnc2ccc(C#CCNC(=O)c3cccn(Cc4ccc(F)c(F)c4)c3=O)cc12` [II-46], the half-inhibitory concentration (IC50) came to 6 nM.
